Here are results for 7 compounds from patent publication US5608095A, “Alkyl-4-silyl-phenols and esters thereof as antiatherosclerotic agents” (Hoechst Marion Roussel, Inc., priority 1996, dated 1997).

Molecules are shown by their SMILES. Where two headings read alike, the source gives them in different places.

Assay [1] relates to serum cholesterol, LDL, HDL, triglycerides. Nature of the assay: Serum lipids and lipoprotein cholesterol in cholesterol-fed female New Zealand White rabbits. The assay is classed as in vivo. The following applies: Oryctolagus cuniculus, po; for response vs control in vivo at 0.4 %: 168 h; for response vs control in vivo at 0.6 %: 336 h, diet 0.6%, 14 days. The protocol: Five independent experiments were performed in the following manner. […] Female New Zealand White rabbits (Hazelton, ~2.0-2.3 kg) were fed 0.2% cholesterol enriched rabbit chow (Purina #5322) with or without 0.4% MDL compound (except, MDL 108,804 at 0.26% and MDL 103,491 repeated at 0.6%). The MDL compounds were solubilized in 100% ethanol. MDL 108,208 was not soluble in 100% ethanol, but it was soluble in diethyl ether:ethanol (3:2 by volume). The chow was sprayed with the MDL mixtures and allowed to dry overnight in a chemical fume hood. Control chow was sprayed with ethanol. Rabbits were fed 100 grams food per day for 7 days (0.6% MDL 103,491 were fed for 14 days); water was available ad libitum. On day 7, rabbits (fasted overnight) were bled (~2 mL) from marginal ear vein; 0.6% MDL 103,491 treated rabbits were tested on day 14. They were euthanized by carbon dioxide overdose. The total body and liver weights were recorded in grams. Food consumption was recorded as grams.cndot.day^-1 .cndot.rabbit^-1. Aliquots of fresh serum were used for clinical chemistries, lipoprotein cholesterol determination, thiobarbituric acid reactive substances (TBARS) and compound and metabolite concentrations in serum. Livers (~5 gram aliquots) were frozen at -20° C. for compound and metabolite concentration determination at a later time.
Blood was allowed to clot at room temperature for 30 minutes. Serum was obtained after centrifugation for 10 min at 5° C. at 3000 rpm in a Beckman GPKR centrifuge with a GH rotor. Fresh serum was analyzed by a COBAS MIRA autoanalyzer (Roche Diagnostics) using Roche diagnostic reagents for total cholesterol (CHOL, kit #44334) and triglyceride (TG, kit #44120). Cholesterol and triglycerides were calculated as mg/dL.
Lipoprotein fractions (very low density lipoprotein, VLDL, low density lipoprotein, LDL and high density lipoprotein, HDL) were separated on a Sepharose 6HR column (1×30 cm, Pharmacia) attached to a Waters Powerline HPLC system. Fifty μL of serum were injected onto the column and eluted with phosphate buffered saline, pH 7.4, at a flow rate of 0.5 mL/min. Cholesterol reagent (Roche Diagnostics, kit #44334, diluted with 20 mL water and then with 20 mL of 0.9% saline) was added at 0.2 mL/min to the post column eluant and incubated in a knitted PFTE Kratos reaction coil (Applied Biosystems) at 37° C. for 5 min. Absorbance was measured at 500 nm. The lipoprotein subfractions were quantitated as follows: [formula]

Assay [2] deals with oxidation of lipids. Nature of the assay: Conjugated diene determination, rat serum. The conditions noted are these: pooled rat serum, 4 days, mean of 2 determinations. The assay is classed as in vivo, male Sprague-Dawley rats. The text has this:
A typical experiment consisted of 4-6 groups of rats (N=5 per group) with 1 group being a control which received no MDL compound and the other groups being treated with 0.3% MDL compound. Some of the compounds were either repeated at 0.3% or evaluated again at the lower dose of 0.1%. Male Sprague-Dawley rats, 50-100 g, (Harlan Laboratories, Indianapolis, Ind.) were housed in groups of 5, fed ad libitum water and Purina Rodent chow (#5002) with or without MDL compound as a dietary admixture for 4 days. Dietary admixtures (0.3%) were made by mixing 1.2 grams of an MDL compound with 400 grams of Purina rodent chow (#5002). The MDL compound was mixed with approximately 50 grams of food using a mortar and pestle. This was added to the remainder of the food and mixed for 3 hours on a rotary mixer. In the morning of day 5, non-fasted rats were anesthetized with carbon dioxide, and blood was collected by cardiac puncture. Rats were sacrificed by cervical dislocation. Body weights and liver weights were recorded in grams. Food consumption was recorded as grams.cndot.day^-1.cndot.rat^-1. Deaths were recorded as mortality. Aliquots of fresh serum were used for clinical chemistries, thiobarbituric acid reactive substances (TBARS) and conjugated diene measurements. Aliquots of serum (~0.5mL) and whole livers were frozen at -20° C. for compound and metabolite concentration determination at a later time.
Conjugated diene lag phase is another indicator of the oxidation of lipids. Lipids exposed to Cu^++ form conjugated dienes that absorb ultraviolet light in the range of 230 to 235 nm. The lag phase of diene formation gives an indication of the amount of oxidation of the lipids. A lag phase longer than control samples indicate inhibition of the oxidation. Conjugated diene lay phase was determined using a Varian DMS200 spectrophotometer (fitted with a constant temperature, 5 cuvette sample changer) at 30° C. Twenty (20) μL of pooled serum were added to cuvettes containing 3.0 mL phosphate buffered saline, pH 7.5, and mixed. The absorbances of all cuvettes were measured, and the instrument baseline was set to zero using the lowest absorbing sample. Next, 100 μL of 1 mmol CuSO4 were added and immediately mixed. The absorbance of each cuvette was recorded at 2 min intervals for a period of 840 min. The data were captured and transferred to a Microsoft EXCEL® spreadsheet where the curves were smoothed and differentials obtained. Lag times were determined mathematically as minutes. Serum samples were pooled (N=5); data presented are the mean values of 2 determinations. Serum samples from treated rats were compared to serum samples from control rats that received no MDL compound.

Setting [3] is: rabbit serum, diet 0.4%, 7 days, read-out: HDL cholesterol, percent of control.
Where [4] appears, read: rabbit serum, diet 0.4%, 7 days, read-out: LDL cholesterol, percent of control.
Setting [5] is: rabbit serum, diet 0.4%, 7 days, read-out: TRIG (triglycerides), percent of control.
Setting [6] is: rabbit serum, diet 0.4%, 7 days, read-out: chol tot. (total cholesterol), percent of control.

For `CC(C)(C)c1cc(OC[Si](C)(C)c2ccccc2)ccc1O` [MDL 103,491, 2-t-Butyl-4-[(dimethylphenylsilyl)methyloxy]phenol], the response vs control in vivo at 0.4 % in assay [1] (setting [3]) turned out to be 103%; in assay [1] (setting [4]), 81%; in assay [1] (setting [5]) it was 134%; in assay [1] (setting [6]), 85%. For the same compound, the response vs control in vivo at 0.6 % in assay [1] (rabbit serum, read-out: TRIG (triglycerides), percent of control) worked out at 216%; in assay [1] (rabbit serum, read-out: chol tot. (total cholesterol), percent of control), 139%. Moreover, in assay [2] (diet 0.1%), the “CONJ. DIENE (conjugated diene lag phase)” value turned out to be 168 min.
Take `CN(C)c1ccc([Si](C)(C)COc2cc(C(C)(C)C)c(O)c(C(C)(C)C)c2)cc1` [MDL 104,556, 2,6-Di-t-butyl-4-[(4-N,N-dimethylaminophenyldimethylsilyl)methyloxy]phenol]: the response vs control in vivo at 0.4 % in assay [1] (setting [3]) amounted to 116%; in assay [1] (setting [4]) it was 53%; in assay [1] (setting [5]) it was 81%; in assay [1] (setting [6]) it was 47%. Moreover, the “CONJ. DIENE (conjugated diene lag phase)” value in assay [2] (diet 0.1%) is 200 min.
As to `CC(C)(C)c1cc(OC[Si](C)(c2ccccc2)c2ccccc2)cc(C(C)(C)C)c1O` [MDL 104,599, 2,6-Di-t-butyl-4-[(diphenylmethylsilyl)methloxy]phenol], the response vs control in vivo at 0.4 % came to 105% in assay [1] (setting [3]), 71% in assay [1] (setting [4]), 64% in assay [1] (setting [5]) and 76% in assay [1] (setting [6]).
`CC(C)(C)c1cc(OC[Si](C)(C)c2ccccc2)c(C(C)(C)C)cc1O` [MDL 104,962, 2,5-Di-t-butyl-4-[(dimethylphenylsilyl)methyloxy]phenol]: the response vs control in vivo at 0.4 % is 163% in assay [1] (setting [3]), 105% in assay [1] (setting [4]), 159% in assay [1] (setting [5]) and 118% in assay [1] (setting [6]). In addition, the “CONJ. DIENE (conjugated diene lag phase)” value in assay [2] (diet 0.3%) came out at 320 min.
`CC(=O)Oc1ccc(OC[Si](C)(C)c2ccccc2)cc1C(C)(C)C` [MDL 105,443, 2-t-Butyl-4-[(dimethylphenylsilyl)methyloxy]phenol acetic acid ester]: the response vs control in vivo at 0.4 % came to 115% in assay [1] (setting [3]), 97% in assay [1] (setting [4]), 127% in assay [1] (setting [5]) and 98% in assay [1] (setting [6]). Besides, the “CONJ. DIENE (conjugated diene lag phase)” value in assay [2] (diet 0.1%) amounted to 151 min.
Regarding `CC(C)(C)c1cc(OC[Si](C)(C)c2ccc(C(F)(F)F)cc2)cc(C(C)(C)C)c1O` [MDL 105,975, 2,6-Di-t-butyl-4-[(dimethyl-4-trifluoromethylphenylsilyl)methyloxy]phenol], the response vs control in vivo at 0.4 % was determined as 76% in assay [1] (read-out: HDL cholesterol, percent of control); 77% in assay [1] (read-out: LDL cholesterol, percent of control); 143% in assay [1] (read-out: TRIG (triglycerides), percent of control); 69% in assay [1] (read-out: chol tot. (total cholesterol), percent of control).
Take `COc1ccc([Si](C)(C)COc2ccc(O)c(C(C)(C)C)c2)cc1` [MDL 106,834, 2-t-Butyl-4-[(dimethyl-p-methoxylphenylsilyl)methyloxy]phenol]: the response vs control in vivo at 0.4 % in assay [1] (setting [3]) came out at 61%; in assay [1] (setting [4]), 89%; in assay [1] (setting [5]) it was 98%; in assay [1] (setting [6]), 67%. Besides, in assay [2] (diet 0.3%), the “CONJ. DIENE (conjugated diene lag phase)” value was found to be 492 min.
